In patent publication US6903129B2, “D-proline prodrugs” (Hoffman-La Roche Inc., priority 2001, dated 2005):

Tests used:
[1] = Rat liver microsome incubation; format: in vitro ADME; conditions: for Rat microsomes Clearance: intrinsic clearance, rat liver microsomes 1.0 mg prot/mL, prodrug 10 μM, 37° C.; for Rat microsomes MAB %: maximal achievable bioavailability (1−E), extrapolated from rat microsomal clearance
Protocol: (§1) Test Description for Microsome Incubation
(§2) Rat and human liver microsome incubations were conducted on-line in a CTC PAL autosampler in order to avoid any degradation of the prodrugs during the work-up. Incubation mixtures consisted of liver microsomes (rat 1.0 mg prot/mL or human 2.0 mg prot/mL), prodrug 10 μM, MgCl2 (3.3 mM), and an NADPH regenerating system consisting of glucose-6-phosphate dehydrogenase, NADPH and glucose-6-phosphate equivalent to 1 mM NADPH) in a total volume of 1.0 mL of potassium phosphate buffer 100 mM pH 7.4.
(§3) Reactions were initiated by addition of the NADPH regenerating system at 37° C. At time 1, 5, 9, 13, 17, 21, 25, and 29 min a 5 μL aliquot was directly analysed on a HPLC-MS/MS system comprising of a HP 1100 quaternary pump with degasser and a PE-Sciex API-2000 MS/MS spectrometer. The analytical column was a Waters Symmetry Shield RP8 (2.1*50 mm with a […] particle size). A polarity non linear gradient from phase A (MeOH/Ac. Form.1% 20/80) to phase B (MeOH) was applied for a total run time of 2 minutes at a flow rate of 0.25 mL/min. The PE-Sciex API-2000 MS/MS spectrometer was used for detection of both the prodrugs and the parent compound (R)-1-[6-[(R)-2-carboxy-pyrrolidin-1-yl]-6-oxo-hexanoyl]-pyrrolidine-2-carboxylic acid. In vivo metabolic clearance was predicted according to published procedures (Houston, J. B., Biochem. Pharmacol., 47:1469-1479, 1994). In brief, the intrinsic clearance (Clearance, Table 1) was calculated from the measured in vitro half-life taking into account incubation volume and microsomal protein used for the in vitro incubation. The intrinsic clearance was expressed in terms of ul/min/mg microsomal protein. For in vivo extrapolations, the hepatic extraction ratio (E) was calculated. Reported below is the %MAB value (maximal achievable bioavailability), which is equal to 1−E.

[2] = Human liver microsome incubation; format: in vitro ADME; conditions: for Human microsomes Clearance: intrinsic clearance, human liver microsomes 2.0 mg prot/mL, prodrug 10 μM, 37° C.; for Human microsomes MAB %: maximal achievable bioavailability (1−E), extrapolated from human microsomal clearance
Protocol: as §1, §2, §3

[3] = Stability of the prodrugs in plasma samples; format: in vitro ADME, rat; conditions: half-life (50% conversion of the prodrug), 10 μM, 37° C.
Protocol: Stability of the Prodrugs in Blood and Plasma Samples
Plasma and blood samples from different species were merged with equimolar amounts (10 μM) of prodrug and parent drug in DMSO and incubated for different time intervals (up to 60 min.) at 37° C. The reaction was stopped by protein precipitation with acetonitrile followed by centrifugation (20 min., 1800 g at 10° C.). The supernatant was immediately subjected to analysis.
The concentration of formed parent compound was determined by LC-MS. The chromatographic system was comprised of a trapping column (X-Terra™ MS C8 3.5 μm, 10×2.1 mm i.d., Waters) and an analytical column (Symmetry C8 3.5 μm, 50×2.1 mm i.d., Waters) connected to a SCIEX API 2000 triplequadrupole mass spectrometer equipped with a turbo ion spray interface. The mobile phases were 1% aqueous formic acid and acetonitrile. The parent compound together with its deuterium labelled internal standard was enriched on the trapping column and eluted with a fast gradient. The retention time of (R)-1-[6-[(R)-2-carboxy-pyrrolidin-1-yl]-6-oxo-hexanoyl]-pyrrolidine-2-carboxylic acid was ˜2.1 min. The effluent (300 μl min^−1) was passed to the turbo ion spray interface without splitting and was nebulized using nitrogen. Multiple reaction monitoring (MRM) in positive mode Was used for mass spectrometric detection. The transitions for the parent were 341.1 [M+H]^+ to 226.1 [Fragment]^+ and for the internal standard 349.1 [M+H]^+ to 234.1 [Fragment]^+. The results were expressed as half-lifes (50% conversion of the prodrug), using the data of the prodrug at time-point 0 min. as […].

Row | SMILES | Rat microsomes Clearance [1] | Rat microsomes MAB % [1] [%] | Human microsomes Clearance [2] | Human microsomes MAB % [2] [%] | Rat plasma tl/2 hours [3]
1 | COC(=O)[C@H]1CCCN1C(=O)CCCCC(=O)N1CCC[C@@H]1C(=O)OC [Example 10, (R)-1-{6-[(R)-2-Methoxycarbonyl-pyrrolidin-1-yl]-6-oxo-hexanoyl}-pyrrolidine-2-carboxylic acid methyl ester] | 9 ul/min/mg microsomal protein | 79 | 2 ul/min/mg microsomal protein | 90 | 1.3 h
2 | NC(=O)COC(=O)[C@H]1CCCN1C(=O)CCCCC(=O)N1CCC[C@@H]1C(=O)OCC(N)=O [Example 1, (R)-1-[6-[(R)-2-Carbamoylmethoxycarbonyl-pyrrolidin-1-yl]-6-oxo-hexanoyl]-pyrrolidine-2-carboxylic acid carbamoylmethyl ester] | 5 ul/min/mg microsomal protein | 88 | 1 ul/min/mg microsomal protein | 93 | 0.4 h
3 | CCOC(=O)[C@H]1CCCN1C(=O)CCCCC(=O)N1CCC[C@@H]1C(=O)OCC [Example 11, (R)-1-{6-[(R)-2-Ethoxycarbonyl-pyrrolidin-1-yl]-6-oxo-hexanoyl}-pyrrolidine-2-carboxylic acid ethyl ester] | 46 ul/min/mg microsomal protein | 44 | 5 ul/min/mg microsomal protein | 77 | 0.4 h
4 | CC(C)NC(=O)COC(=O)[C@H]1CCCN1C(=O)CCCCC(=O)N1CCC[C@@H]1C(=O)OCC(=O)NC(C)C [Example 3, (R)-1-{6-[(R)-2-(Isopropylcarbamoyl-methoxycarbonyl)-pyrrolidin-1-yl]-6-oxo-hexanoyl}-pyrrolidine-2-carboxylic acid isopropylcarbamoyl-methyl ester] | 82 ul/min/mg microsomal protein | 30 | 16 ul/min/mg microsomal protein | 50 | low
5 | CCCOC(=O)[C@H]1CCCN1C(=O)CCCCC(=O)N1CCC[C@@H]1C(=O)OCCC [Example 12, (R)-1-{6-Oxo-6-[(R)-2-propoxycarbonyl-pyrrolidin-1-yl]-hexanoyl}-pyrrolidine-2-carboxylic acid propyl ester] | 253 ul/min/mg microsomal protein | 12 | 73 ul/min/mg microsomal protein | 18 | 
6 | CCN(CC)C(=O)COC(=O)[C@H]1CCCN1C(=O)CCCCC(=O)N1CCC[C@@H]1C(=O)OCC(=O)N(CC)CC [Example 7, (R)-1-{6-[(R)-2-(Diethylcarbamoyl-methoxycarbonyl)-pyrrolidin-1-yl]-6-oxo-hexanoyl}-pyrrolidine-2-carboxylic acid diethylcarbamoyl-methyl ester] | 9 ul/min/mg microsomal protein | 73 | 2 ul/min/mg microsomal protein | 90 | 0.2 h

Results, then the molecule that gave them:

Row | Rat microsomes Clearance [1] | Rat microsomes MAB % [1] [%] | Human microsomes Clearance [2] | Human microsomes MAB % [2] [%] | Rat plasma tl/2 hours [3] | SMILES
7 | 18 ul/min/mg microsomal protein | 66 | 64 ul/min/mg microsomal protein | 20 | low | C=CCNC(=O)COC(=O)[C@H]1CCCN1C(=O)CCCCC(=O)N1CCC[C@@H]1C(=O)OCC(=O)NCC=C [Example 2, (R)-1-[6-[(R)-2-Allylcarbamoylmethoxycarbonyl-pyrrolidin-1-yl]-6-oxo-hexanoyl]-pyrrolidine-2-carboxylic acid allylcarbamoylmethyl ester]
8 | 7 ul/min/mg microsomal protein | 84 | 1 ul/min/mg microsomal protein | 96 | 0.8 h | CN(C)C(=O)COC(=O)[C@H]1CCCN1C(=O)CCCCC(=O)N1CCC[C@@H]1C(=O)OCC(=O)N(C)C [Example 6, (R)-1-{6-[(R)-2-(Dimethylcarbamoyl-methoxycarbonyl)-pyrrolidin-1-yl]-6-oxo-hexanoyl}-pyrrolidine-2-carboxylic acid dimethylcarbamoyl-methyl ester]
9 | 36 ul/min/mg microsomal protein | 50 | 8 ul/min/mg microsomal protein | 67 | low | O=C(COC(=O)[C@H]1CCCN1C(=O)CCCCC(=O)N1CCC[C@@H]1C(=O)OCC(=O)NC1CC1)NC1CC1 [Example 5, (R)-1-{6-[(R)-2-(Cyclopropylcarbamoyl-methoxycarbonyl)-pyrrolidin-1-yl]-6-oxo-hexanoyl}-pyrrolidine-2-carboxylic acid cyclopropylcarbamoyl-methyl ester]
10 | 625 ul/min/mg microsomal protein | 5 | 57 ul/min/mg microsomal protein | 22 | low | CC(C)(C)NC(=O)COC(=O)[C@H]1CCCN1C(=O)CCCCC(=O)N1CCC[C@@H]1C(=O)OCC(=O)NC(C)(C)C [Example 4, (R)-1-{6-[(R)-2-(tert-Butylcarbamoyl-methoxycarbonyl)-pyrrolidin-1-yl]-6-oxo-hexanoyl}-pyrrolidine-2-carboxylic acid tert-butylcarbamoyl-methyl ester]
